Reference: patent US20200078379A1, “DEFEROXAMINE DERIVATIVES AS MEDICAMENTS” (BIOTECHNOLOGICKY USTAV AV CR, V.V.I., priority 2017, published 2020)
Read-outs that look alike come from different tables or passages of the source.

Columns and labels:
MDA-MB-231 cells = experiment: crystal violet assay, cellular viability; type: cell-based, human; details: for IC50: Homo sapiens, read-out: IC50 cellular viability
Method: (§1) Compound 1 and compound 2 were tested in their efficacy to kill malignant MCF7 cancer cells. Briefly, 10.000 cells per well were seeded in a 96-well plat on one day and the next day selected compounds were added and incubated with the cells for 48 hrs. The cells were then fixed with 4% paraformaldehyde, stained with 0.05% crystal violet, washed with PBS, and solubilized in 1% SDS. The absorbance of the plate at 595 nm was then measured, quantifying the number of viable cells.
(§2) A number of compounds of the present invention were tested for cytotoxicity towards at least some of human breast cancer cell lines (MCF7, MDA-MB-231), human fibroblast (BJ) and murine triple negative breast cancer cell line 4T1 (Table 2).

MCF7 cells = experiment: crystal violet assay, cellular viability; type: cell-based, human; details: crystal violet; for IC50: MCF7, 48 h, read-out: IC50 cellular viability
Method: as §1, §2

[1] = test system: murine triple negative breast cancer cell line 4T1; experiment: crystal violet assay, cellular viability; type: cell-based; details: Mus musculus, 4T1, 48 hours
Method: as §1, §2

non malignant cells (BJ) = experiment: AnnexinV/PI cell death assay; type: cell-based; details: ratio Ga:compound 2 1:0, 5 μM gallium salt alone
Method: To confirm such findings by an independent method, cell death-inducing potency (cytotoxic efficacy) of DFO and compound 2 have been tested via annexin V/PI staining commonly used as a measure of apoptotic/necrotic cell death. Briefly, cells were seeded in 12-well plate at 100,000 per well, incubated with the selected compounds for 48 hours, then floating cells were spun, adherent cells trypsinized and spun as well followed by the staining with AnnexinV-FITC and PI probes. Cells were then washed with PBS and measured via Fluorescence Activated Sorter.
We have then analyzed the percentage of death cells by the annexinV/PI staining as described in example 7. We have observed a significant potentiation in cell death induction when gallium was combined with compound 2 (Table 14)

[2] = test system: human mammary gland cancer cell line MDA-MB-231; experiment: dose-effect relationship of drugs and mixtures, crystal violet assay, Median-Effect / Combination index; type: cell-based; details: for IC50 / Median-Effect Plot parameter m (slope): MDA-MB-231, crystal violet, 48 hours; for IC50: Chou-Talalay method, read-out: Median-Effect Plot parameter IC50; for concentration of the cytostatic at IC75, cytostatic alone: MDA-MB-231
Method: (§3) The potentiation of cytotoxic effect of compound 2 in combination with several cytostatics was evaluated. The dose-effect relationship of individual drugs and mixtures of compound 2 with paclitaxel, cis Pt (cis-platin), doxorubicin and fluorouracil was determined on human mammary gland cancer cell line MDA-MB-231 and pancreatic cell line BxPC3 by means of crystal violet assay. The linearized Median-Effect Plot of dose response line provided both parameters (IC50; trend line m(slope) value) of Median-Effect Equation for individual and combination treatment [ref: Theoretical basis, experimental design, and computerized simulation of synergism and antagonism in drug combination studies; Ting-Chao Chou: Pharmacol Rev. 58(3), 2006, 621-81; Erratum in Pharmacol Rev. 2007; 59(1), 124]:
(§4) Potentiation of combination effect of compound 2 was expressed for concentrations IC50, IC75, IC90, IC95 by calculation of Combination index (CI) applying Combination Index Theorem for mutually exclusive drugs. Overall CI was expressed by means of weighted average of IC50, IC75, IC90, IC95 [ref: Quantitative analysis of dose-effect relationships: the combined effects of multiple drugs or enzyme inhibitors; Ting-Chao Chou, Paul Talalay: Advances in Enzyme Regulation, Volume 22, 1984, Pages 27-55]: […]

[3] = test system: pancreatic cell line BxPC3; experiment: as above; type: cell-based; details: for IC50: read-out: Median-Effect Plot parameter IC50
Method: as §3, §4

BT474 cells = experiment: crystal violet assay, cellular viability; type: cell-based; details: crystal violet
[4] = MDA-MB-231, 48 hours, crystal violet

## CCCC[P+](CCCC)(CCCC)CCCCCCCCCCN(CCCCCCCCCC[P+](CCCC)(CCCC)CCCC)CCCCCN(O)C(=O)CCC(=O)NCCCCCN(O)C(=O)CCC(=O)NCCCCCN(O)C(C)=O [Compound 6, 42,42-dibutyl-3,14,25-trihydroxy-2,10,13,21,24-pentaoxo-31-(10-(tributylphosphonio)decyl)-3,9,14,20,25,31-hexaaza-42-phosphahexatetracontane-31,42-diium trichloride]
MDA-MB-231 cells; [4]
  IC50: 2800 nM
MCF7 cells; Homo sapiens
  IC50: 3000 nM
[1]
  IC50: 4900 nM

## CC(=O)N(O)CCCCCNC(=O)CCC(=O)N(O)CCCCCNC(=O)CCC(=O)N(O)CCCCCN(CCCCCCCCCC[P+](Cc1ccccc1)(Cc1ccccc1)Cc1ccccc1)CCCCCCCCCC[P+](Cc1ccccc1)(Cc1ccccc1)Cc1ccccc1 [Compound 9, 2,2-dibenzyl-19,30,41-trihydroxy-20,23,31,34,42-pentaoxo-1-phenyl-13410-(tribenzylphosphonio)decyl)-13,19,24,30,35,41-hexaaza-2-phosphatritetracontane-2,13-diium trichloride]
MDA-MB-231 cells; MDA-MB-231, 48 h
  IC50: 800 nM
MCF7 cells; Homo sapiens
  IC50: 900 nM
[1]
  IC50: 1800 nM

## O=[N+]([O-])[O-].O=[N+]([O-])[O-].O=[N+]([O-])[O-].[Ga+3] [Ga(NO3)2, gallium nitrate, reference compound]
Non malignant cells (BJ)
  percentage of death cells by annexinV/PI staining: 14.45 (5.6)

## COc1cccc2c1C(=O)c1c(O)c3c(c(O)c1C2=O)C[C@@](O)(C(=O)CO)C[C@@H]3O[C@H]1C[C@H](N)[C@H](O)[C@H](C)O1 [doxorubicin]
[2]; Homo sapiens
  IC50: 319 nM
[2]
  concentration of the cytostatic at IC75, cytostatic alone: 3578.9 nM
  Median-Effect Plot parameter m (slope): 0.4543

## CC(=O)O[C@H]1C(=O)[C@@]2(C)[C@H]([C@H](OC(=O)c3ccccc3)[C@]3(O)C[C@H](OC(=O)[C@H](O)[C@@H](NC(=O)c4ccccc4)c4ccccc4)C(C)=C1C3(C)C)[C@]1(OC(C)=O)CO[C@@H]1C[C@@H]2O [paclitaxel]
[2]; Homo sapiens
  IC50: 18.9 nM
[2]
  concentration of the cytostatic at IC75, cytostatic alone: 142 nM
  Median-Effect Plot parameter m (slope): 0.5451

## CCCCCCCC[P+](CCCCCCCC)(CCCCCCCC)CCCCCCCCCCN(CCCCCCCCCC[P+](CCCCCCCC)(CCCCCCCC)CCCCCCCC)CCCCCN(O)C(=O)CCC(=O)NCCCCCN(O)C(=O)CCC(=O)NCCCCCN(O)C(C)=O [Compound 10, 3,14,25-trihydroxy-42,42-dioctyl-2,10,13,21,24-pentaoxo-31-(10-(trioctylphosphonio)decyl)-3,9,14,20,25,31-hexaaza-42-phosphapentacontane-31,42-diium trichloride]
MDA-MB-231 cells; [4]
  IC50: 700 nM
MCF7 cells; Homo sapiens
  IC50: 800 nM
[1]
  IC50: 1300 nM

## O=c1[nH]cc(F)c(=O)[nH]1 [Fluorouracil, fluorouracil]
[3]; 48 hours
  Median-Effect Plot parameter m (slope): 0.33
  IC50: 48300 nM
[3]; Homo sapiens, BXPC-3, 48 h
  IC50: 48300 nM

## CC(=O)N(O)CCCCCNC(=O)CCC(=O)N(O)CCCCCNC(=O)CCC(=O)N(O)CCCCCN(CCCCCCCCCC[P+](C1CCCCC1)(C1CCCCC1)C1CCCCC1)CCCCCCCCCC[P+](C1CCCCC1)(C1CCCCC1)C1CCCCC1 [Compound 4, Tricyclohexyl(3,14,25-trihydroxy-2,10,13,21,24-pentaoxo-31-(10-(tricyclohexylphosphonio)decyl)-3,9,14,20,25,31-hexaazahentetracontan-31-ium-41-yl) phosphonium trichloride]
MDA-MB-231 cells; MDA-MB-231, 48 h
  IC50: 1300 nM
MCF7 cells; Homo sapiens
  IC50: 700 nM
[1]
  IC50: 1800 nM

## CC(=O)N(O)CCCCCNC(=O)CCC(=O)N(O)CCCCCNC(=O)CCC(=O)N(O)CCCCCN(CCCCCCCCCCCC[P+](c1ccccc1)(c1ccccc1)c1ccccc1)CCCCCCCCCCCC[P+](c1ccccc1)(c1ccccc1)c1ccccc1 [Compound 8, Triphenyl(3,14,25-trihydroxy-2,10,13,21,24-pentaoxo-31-(12-(triphenylphosphonio)dodecyl)-3,9,14,20,25,31-hexaazatritetracontan-31-ium-43-yl)phosphonium trichloride]
MDA-MB-231 cells; MDA-MB-231, 48 h
  IC50: 600 nM
MCF7 cells; Homo sapiens
  IC50: 500 nM
[1]
  IC50: 1200 nM

## N.N.[Cl][Pt][Cl] [cis Pt, cis-platin]
[3]; 48 hours
  Median-Effect Plot parameter m (slope): 1.59
  IC50: 4180 nM
[2]
  concentration of the cytostatic at IC75, cytostatic alone: 42275.1 nM
  Median-Effect Plot parameter m (slope): 1.4574
  IC50: 21800 nM

## CC(=O)N(O)CCCCCNC(=O)CCC(=O)N(O)CCCCCNC(=O)CCC(=O)N(O)CCCCCN(CCCCCC[P+](c1ccccc1)(c1ccccc1)c1ccccc1)CCCCCC[P+](c1ccccc1)(c1ccccc1)c1ccccc1.[Cl-].[Cl-] [compound 3, Triphenyl(3,14,25-trihydroxy-2,10,13,21,24-pentaoxo-31-(6-(triphenylphosphonio)hexyl)-3,9,14,20,25,31-hexaazaheptatriacontan-37-yl)phosphonium chloride]
BT474 cells; BT474, 4 μM
  mean percentage of surviving cells compared to non-treated controls: 101.7%
BT474 cells; BT474, 6 μM
  mean percentage of surviving cells compared to non-treated controls: 109.1%
BT474 cells; BT474, 8 μM
  mean percentage of surviving cells compared to non-treated controls: 104.1%
BT474 cells; BT474, 10 μM
  mean percentage of surviving cells compared to non-treated controls: 99.2%
BT474 cells; BT474, 20 μM
  mean percentage of surviving cells compared to non-treated controls: 91.5%
BT474 cells; BT474, 40 μM
  mean percentage of surviving cells compared to non-treated controls: 74.2%
BT474 cells; BT474, 60 μM
  mean percentage of surviving cells compared to non-treated controls: 58.9%
BT474 cells; BT474, 80 μM
  mean percentage of surviving cells compared to non-treated controls: 49.6%
BT474 cells; BT474, 100 μM
  mean percentage of surviving cells compared to non-treated controls: 47.8%
BT474 cells; Homo sapiens, BT-474, BT474, 48 hours, read-out: IC50 cellular viability
  IC50: 83500 nM
MDA-MB-231 cells; MDA-MB-231, 48 h
  IC50: 232000 nM
MDA-MB-231 cells; MDA-MB-231, 4 μM, crystal violet
  mean percentage of surviving cells compared to non-treated controls: 97.7%
MDA-MB-231 cells; MDA-MB-231, 6 μM, crystal violet
  mean percentage of surviving cells compared to non-treated controls: 95.3%
MDA-MB-231 cells; MDA-MB-231, 8 μM, crystal violet
  mean percentage of surviving cells compared to non-treated controls: 103.1%
MDA-MB-231 cells; MDA-MB-231, 10 μM, crystal violet
  mean percentage of surviving cells compared to non-treated controls: 97.4%
MDA-MB-231 cells; MDA-MB-231, 20 μM, crystal violet
  mean percentage of surviving cells compared to non-treated controls: 98.9%
MDA-MB-231 cells; MDA-MB-231, 40 μM, crystal violet
  mean percentage of surviving cells compared to non-treated controls: 91.3%
MDA-MB-231 cells; MDA-MB-231, 60 μM, crystal violet
  mean percentage of surviving cells compared to non-treated controls: 86.5%
MDA-MB-231 cells; MDA-MB-231, 80 μM, crystal violet
  mean percentage of surviving cells compared to non-treated controls: 77.2%
MDA-MB-231 cells; MDA-MB-231, 100 μM, crystal violet
  mean percentage of surviving cells compared to non-treated controls: 76.0%
MCF7 cells; Homo sapiens
  IC50: 70400 nM
MCF7 cells; Homo sapiens, MCF7, 10 μM, 48 hrs, read-out: mean percentage of viable cells compared to non-treated controls
  viability at 10 µM: 93.9%
MCF7 cells; MCF7, 4 μM
  mean percentage of surviving cells compared to non-treated controls: 100.4%
MCF7 cells; MCF7, 6 μM
  mean percentage of surviving cells compared to non-treated controls: 99.1%
MCF7 cells; MCF7, 8 μM
  mean percentage of surviving cells compared to non-treated controls: 98.2%
MCF7 cells; MCF7, 20 μM
  mean percentage of surviving cells compared to non-treated controls: 84.0%
MCF7 cells; MCF7, 40 μM
  mean percentage of surviving cells compared to non-treated controls: 74.6%
MCF7 cells; MCF7, 60 μM
  mean percentage of surviving cells compared to non-treated controls: 55.2%
MCF7 cells; MCF7, 80 μM
  mean percentage of surviving cells compared to non-treated controls: 43.2%
MCF7 cells; MCF7, 100 μM
  mean percentage of surviving cells compared to non-treated controls: 37.9%

## CC(=O)N(O)CCCCCNC(=O)CCC(=O)N(O)CCCCCNC(=O)CCC(=O)N(O)CCCCCN(Cc1cnnn1CCCCCCCCCC[P+](c1ccccc1)(c1ccccc1)c1ccccc1)Cc1cnnn1CCCCCCCCCC[P+](c1ccccc1)(c1ccccc1)c1ccccc1 [Compound 20, Triphenyl(10-(5-(8,19,30-trihydroxy-9,12,20,23,31-pentaoxo-2-((1-(10-(triphenylphosphonio)decyl)-1H-1,2,3-triazol-5-yl)methyl)-2,8,13,19,24,30-hexaazadotriacontyl)-1H-1,2,3-triazol-1-yl)decyl)phosphonium]
[1]
  IC50: 2200 nM
